Laboratory results reported in patent publication US7659289B2, “Hydroxyethylene-based β-secretase inhibitors and use thereof” (CoMentis, Inc., priority 2004, dated 2010).

Key:
memapsin 2 = memapsin 2 (Homo sapiens, UniProt P56817); test: Inhibition of memapsin 2 beta-secretase activity toward fluorogenic substrate FS-2; assay type: biochemical; conditions: pH 4, 37° C., 20 minutes pre-incubation, fluorogenic substrate FS-2, tight-binding model; read-out: M2 Ki
Aβ production = test: Cellular Aβ IC50 determination (Aβ40 sandwich ELISA); assay type: cell-based; conditions: Cricetulus griseus; Aβ40, Chinese hamster ovary cells over-expressing human APP695 with London and Swedish mutations, 24 h incubation
Procedure: The potency of compounds against memapsin 2 activity was determined in a cellular assay of Aβ production. […] Chinese hamster ovary cells that over-express human APP695 with the London and Swedish mutations were seeded in multi-well plates at 10% confluency. Compounds were dissolved in DMSO to concentrations near 1 mM, and diluted into culture media to a final concentration near 4 μM (final 0.4% DMSO). Compounds were diluted serially and applied to cells in multi-well plates 48 h after seeding. Incubation was continued in 5% CO2 at 37 degrees C. for 24 h. Aliquots were removed and assayed for Aβ40 content using a sandwich ELISA (BioSource International). Amount of Aβ40 over the range of concentration of compounds, relative to control incubations, were fit to a 4-parameter IC50 model.

Cathepsin D = Cathepsin D (Homo sapiens, UniProt P07339); test: Inhibition of cathepsin D activity (MALDI-TOF, substrate peptide […]); assay type: biochemical; conditions: pH 4.1, 37 degrees C., read-out: Cath D Ki
Sequence of Cathepsin D (P07339 65-412, species assumed): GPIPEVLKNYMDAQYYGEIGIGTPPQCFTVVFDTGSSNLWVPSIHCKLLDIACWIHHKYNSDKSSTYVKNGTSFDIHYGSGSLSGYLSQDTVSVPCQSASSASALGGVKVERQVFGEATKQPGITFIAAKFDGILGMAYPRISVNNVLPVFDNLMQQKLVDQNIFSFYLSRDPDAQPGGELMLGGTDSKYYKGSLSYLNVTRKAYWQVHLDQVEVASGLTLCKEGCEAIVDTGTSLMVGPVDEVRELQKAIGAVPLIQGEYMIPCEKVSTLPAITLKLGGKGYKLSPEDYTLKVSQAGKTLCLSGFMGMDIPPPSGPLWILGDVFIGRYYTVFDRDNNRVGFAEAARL

Sequence of memapsin 2 (P56817 46-501): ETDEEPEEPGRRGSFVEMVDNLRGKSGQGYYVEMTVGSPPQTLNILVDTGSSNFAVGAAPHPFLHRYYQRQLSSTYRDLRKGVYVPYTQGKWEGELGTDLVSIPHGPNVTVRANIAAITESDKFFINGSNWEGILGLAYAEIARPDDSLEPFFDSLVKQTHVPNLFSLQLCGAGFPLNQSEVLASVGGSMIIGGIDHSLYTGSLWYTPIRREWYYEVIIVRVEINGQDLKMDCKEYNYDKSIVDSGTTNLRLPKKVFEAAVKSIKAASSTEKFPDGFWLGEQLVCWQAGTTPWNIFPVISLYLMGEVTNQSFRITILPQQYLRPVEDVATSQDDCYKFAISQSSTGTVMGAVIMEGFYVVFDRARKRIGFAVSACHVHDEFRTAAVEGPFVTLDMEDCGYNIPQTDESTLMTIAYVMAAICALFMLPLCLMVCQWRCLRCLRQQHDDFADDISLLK

Ki (memapsin 2)	IC50 (Aβ production)	Ki (Cathepsin D)	SMILES
< 100 nM	6000 to 100000 nM		CC[C@@H](Cn1nc(C)cc1C)C(=O)N[C@@H](CNC(=O)OC(C)(C)C)C(=O)N[C@@H](CC(C)C)[C@@H](O)C[C@@H](C)C(=O)N[C@H](C(=O)NCc1ccccn1)C(C)C [tert-butyl (S)-2-((S)-2-((3,5-dimethyl-1H-pyrazol-1-yl)methyl)butanamido)-3-((4S,5S,7R)-5-hydroxy-2,7-dimethyl-8-((S)-3-methyl-1-oxo-1-(pyridin-2-ylmethylamino)butan-2-ylamino)-8-oxooctan-4-ylamino)-3-oxopropylcarbamate]
100 to 600 nM	> 100000 nM		CC[C@@H](Cc1nc(C)cs1)C(=O)N[C@@H](CN(C)OC)C(=O)N[C@@H](CC(C)C)[C@@H](O)C[C@@H](C)C(=O)N[C@H](C(=O)NCC(C)C)C(C)C [(2R,4S,5S)-4-hydroxy-N-((S)-1-(isobutylamino)-3-methyl-1-oxobutan-2-yl)-5-((S)-3-(methoxy(methyl)amino)-2-((S)-2-((4-methylthiazol-2-yl)methyl)butanamido)propanamido)-2,7-dimethyloctanamide]
> 600 nM		100 to 600 nM	CC[C@H](Cn1nc(C)cc1C)C(=O)N[C@@H](CNC(=O)OC(C)(C)C)C(=O)N[C@@H](CC(C)C)[C@@H](O)C[C@@H](C)C(=O)N[C@H](C(=O)NCC(F)(F)F)C(C)C [tert-butyl (S)-2-((R)-2-((3,5-dimethyl-1H-pyrazol-1-yl)methyl)butanamido)-3-((4S,5S,7R)-5-hydroxy-2,7-dimethyl-8-((S)-3-methyl-1-oxo-1-(2,2,2-trifluoroethylamino)butan-2-ylamino)-8-oxooctan-4-ylamino)-3-oxopropylcarbamate]
100 to 600 nM		< 100 nM	Cc1nc(COC(=O)N[C@@H](CC(=O)O)C(=O)N[C@@H](CC(C)C)[C@@H](O)C[C@@H](C)C(=O)N[C@H](C(=O)NCC(C)C)C(C)C)c(C)o1 [(S)-3-(((2,5-dimethyloxazol-4-yl)methoxy)carbonylamino)-4-((4S,5S,7R)-5-hydroxy-8-((S)-1-(isobutylamino)-3-methyl-1-oxobutan-2-ylamino)2,7-dimethyl-8-oxooctan-4-ylamino)-4-oxobutanoic acid]
100 to 600 nM		< 100 nM	CC[C@@H](Cn1nc(C)cc1C)C(=O)N[C@@H](CC(N)=O)C(=O)N[C@@H](CC(C)C)[C@@H](O)C[C@@H](C)C(=O)N[C@H](C(=O)NCC(C)C)C(C)C [(S)-2-((S)-2-((3,5-dimethyl-1H-pyrazol-1-yl)methyl)butanamido)-N1-((4S,5S,7R)-5-hydroxy-8-((S)-1-(isobutylamino)-3-methyl-1-oxobutan-2-ylamino)-2,7-dimethyl-8-oxooctan-4-yl)succinamide]
100 to 600 nM		< 100 nM	Cc1csc(C[C@H](C)C(=O)N[C@@H](CC(=O)N(C)C)C(=O)N[C@@H](CC(C)C)[C@@H](O)C[C@@H](C)C(=O)N[C@H](C(=O)NCC(C)C)C(C)C)n1 [(S)-N1-((4S,5S,7R)-5-hydroxy-8-((S)-1-(isobutylamino)-3-methyl-1-oxobutan-2-ylamino)-2,7-dimethyl-8-oxooctan-4-yl)-N4,N4-dimethyl-2-((S)-2-methyl-3-(4-methylthiazol-2-yl)propanamido)succinamide]
> 600 nM		< 100 nM	COc1ccc(C[C@H](NC(=O)[C@H](CNC(=O)OC(C)(C)C)NC(=O)[C@@H](C)Cc2nc(C)cs2)[C@@H](O)C[C@@H](C)C(=O)N[C@H](C(=O)NCC(C)C)C(C)C)cc1 [tert-butyl (S)-3-((2S,3S,5R)-3-hydroxy-6-((S)-1-(isobutylamino)-3-methyl-1-oxobutan-2-ylamino)-1-(4-methoxyphenyl)-5-methyl-6-oxohexan-2-ylamino)-2-((S)-2-methyl-3-(4-methylthiazol-2-yl)propanamido)-3-oxopropylcarbamate]
